From article PMC9697131, “Agomelatine, Ketamine and Vortioxetine Attenuate Energy Cell Metabolism—In Vitro Study” (International Journal of Molecular Sciences, 2022) come the findings set out here.

Structures are written as SMILES. Like-named read-outs stand apart in the source and are kept apart here.

Assay [1] has as its system complex I-linked ATP content, pig brain mitochondria. The assay is described as follows: Complex I-linked ATP content, bioluminescence. The class given is biochemical. The conditions noted are these: for complex I-linked ATP content (relative to control = 100%): mean ± SD. On the procedure:
(§1) Pig brains were obtained from a slaughterhouse. Mitochondrial fraction isolation and purification from brain cortex were performed as previously described. Briefly, grey matter from pig brains was homogenized and crude mitochondrial fraction was isolated and then centrifuged on the sucrose gradient to obtain purified mitochondrial fraction. The freshly purified mitochondria were kept on ice until the assays were performed and were used for measurements of the mitochondrial oxygen consumption rate, measurements of ATP and ROS formation. Frozen mitochondria (stored at −70 °C) were used for the following enzyme activity measurements: ETC complexes, citrate synthase (CS) and malate dehydrogenase (MDH) activity.
The following protocol has been modified and optimized. An ATP Bioluminescence Assay Kit CLS II was used to measure ATP content and kinetics. The luminescence was measured using FluoroMax-3 (Jobin Yvon, Edison, NJ, USA) at 562 nm. Standard curve for ATP determination was prepared from ATP standard in the range from 0 to 600 nM. Tested substances were used at final concentrations 10, 50 and 100 µM, with drug-free control (DMSO) for each measurement and the final protein concentration was 50 µg/mL.
Mitochondria were incubated for 30 min on ice with the MiR05 buffer, tested substances and mitochondria. Consequently, the substrate mix was added, consisting of 5 mM malate and 5 mM pyruvate (for complex I) or 5 mM succinate and 1 μM rotenone (for complex II), 60 μM ADP and 0.75 mM MgCl2·6H2O and incubated for 30 min in 30 °C. Reaction was stopped by heating vials at 100 °C for 2 min. Background luminescence was measured. In total, 230 µL of luciferase reagent was added and total ATP° content for complex I and complex II+III was determined by measuring the luminescence for 1 min. Drug-free control (DMSO) was part of each measurement.

Assay [2] relates to total H2O2 content, pig brain mitochondria. The assay is described as follows: Hydrogen peroxide production, Amplex Red. The conditions noted are these: for total H2O2 content (relative to control = 100%): mean ± SD. The class given is biochemical. On the procedure: as §1
Hydrogen peroxide formation was determined using an Amplex Red Hydrogen Peroxide/Peroxidase Assay Kit. The reaction mixture consisted of 27 mM HEPES (pH 7.4), 114 mM sucrose, 100 mM KCl, 1.3 mM K2HPO4, 5 mM malate, 5 mM pyruvate, 1 µM rotenone, 10 mM succinate, 0.75 mM MgCl2, […], 15 µM Amplex Red and horseradish peroxidase 0.09 U/ML. […] The reaction was stopped by the addition of antimycin A. The standard curve for hydrogen peroxide was prepared using H2O2 standard.

In assay [3] the test system is complex II+III (succinate cytochrome c oxidoreductase). The assay is described as follows: Complex II+III (succinate cytochrome c oxidoreductase) activity, spectrophotometric. Type of assay: biochemical. The conditions noted are these: 100 μM drug; pig brain mitochondria; mean ± SD. As to the method:
as §1
Ultrasonication and incubation of mitochondria with the tested drugs for 30 min at 30 °C was performed before measurement with a corresponding drug-free control (DMSO) for every measurement. Mitochondrial enzymes activities were determined spectrophotometrically as absorbance using a GENESYS 180 UV-Vis Spectrophotometer (Thermo Fisher Scientific, Waltham, MA, USA).
The activity of complex II+III was measured with an antimycin A-sensitive cyt c reduction at 550 nm for 3 min, and it was initiated by the addition of cyt c. The medium consisted of KH2PO4, EDTA, KCN and rotenone. The final protein concentration was 50 µg/mL and final drugs concentrations 2.5, 5, 10, 50 and 100 µM. Drug-free control (DMSO) was used as a control for each measurement.

The target in a further assay is T1, MAO-A (Sus scrofa, UniProt Q6Q2J0).
T1 construct: from tissue; host or cells: pig brain mitochondria
T1 sequence (Q6Q2J0 1-527): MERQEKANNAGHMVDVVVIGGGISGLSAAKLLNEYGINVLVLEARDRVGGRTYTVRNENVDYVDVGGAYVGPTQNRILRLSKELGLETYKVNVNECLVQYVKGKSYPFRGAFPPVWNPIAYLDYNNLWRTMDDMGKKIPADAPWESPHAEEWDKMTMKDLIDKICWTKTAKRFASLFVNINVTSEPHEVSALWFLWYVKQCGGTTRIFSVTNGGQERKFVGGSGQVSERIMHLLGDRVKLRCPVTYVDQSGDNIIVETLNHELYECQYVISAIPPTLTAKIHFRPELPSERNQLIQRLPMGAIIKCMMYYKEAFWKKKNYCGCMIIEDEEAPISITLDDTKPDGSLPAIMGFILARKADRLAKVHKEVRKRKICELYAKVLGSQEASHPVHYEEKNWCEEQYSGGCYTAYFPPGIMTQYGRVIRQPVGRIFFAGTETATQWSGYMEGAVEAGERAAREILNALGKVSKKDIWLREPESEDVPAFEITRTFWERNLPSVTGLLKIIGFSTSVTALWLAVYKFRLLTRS
The assay is described as follows: MAO-A activity, radiolabeled [3H]serotonin substrate. The class given is biochemical, pig. The note with it: for MAO-A Inhibition (type): 0.1–300 µM; for MAO-A Hillslope / MAO-A Residual Activity: mean. On the procedure:
as §1
Mitochondria in KH buffer at final concentration of 800 µg/mL were preincubated with the tested drugs in a final concentration range of 0.1–300 µM for 60 min at 37 °C. For each measurement, there was a corresponding drug-free control (DMSO). Radiolabeled substrates ([^3H]serotonin for MAO-A and [^14C]PEA for MAO-B) were added to initiate the reaction. The reaction was carried out at 37 °C for 20 min for MAO-A and for 1 min for MAO-B, and the reaction was stopped by hydrochloric acid. The radioactivity of the organic phases of the extracts were measured by liquid scintillation counting (LS 6000IC, Beckman Instruments, Inc., Fullerton, CA, USA).
The inhibition of respiration rate and MAO activity were analyzed by A four-parameter logistic regression with Prism software (GraphPad Software, San Diego, CA, USA) was used to analyze the respiratory rate inhibition and activity of MAO. […] The IC50 represents the drug concentration required to inhibit the difference between the baseline and the residual value of the mitochondrial oxygen flux or MAO activity by 50%.

Where [4] appears, read: mean ± SEM, 4 measurements, read-out: MAO-A IC50.

As a reminder, the IC50 is the concentration needed to halve the response being measured. Take `Cc1ccc(Sc2ccccc2N2CCNCC2)c(C)c1` [vortioxetine]: in assay [1] (100 μM drug), the “complex I-linked ATP content (relative to control = 100%)” value is recorded as 119.0 ± 10.6%. The “total H2O2 content (relative to control = 100%)” value in assay [2] (50 μM drug) is on record as 124.5 ± 2.5%; in assay [2] (100 μM drug), 85.4 ± 5.0%. The “complex II+III activity (relative to control = 100%)” value in assay [3] was 43.9 ± 1.2%. Moreover, the “MAO-A Inhibition (type)” value on MAO-A was “partial”. For the same compound, the IC50 at MAO-A (setting [4]) stood at 7.33 µM. Further, the “MAO-A Hillslope” value at MAO-A (4 measurements) came out at 1.76. In addition, the “MAO-A Residual Activity” value on MAO-A (4 measurements) is on record as 0.109 rel.u.

For `CNC1(c2ccccc2Cl)CCCCC1=O` (stereo not shown) [ketamine], the “effect on complex I-linked ATP content (in words)” value in assay [1] (10, 50 and 100 µM) is “no significant effect”. Further, in assay [2] (10, 50 and 100 µM), the “effect on total H2O2 production (in words)” value was “no statistically significant effect”. For the same compound, the “complex II+III activity (relative to control = 100%)” value in assay [3] came out at 93.6 ± 2.6%. Further, at MAO-A, the IC50 was 10.4 µM and the “MAO-A Inhibition (type)” value is on record as “partial”. Also, at MAO-A (4 measurements), the “MAO-A Hillslope” value was 1.50 and the “MAO-A Residual Activity” value is 0.259 rel.u.

Regarding `COc1ccc2cccc(CCNC(C)=O)c2c1` [agomelatine], the “complex I-linked ATP content (relative to control = 100%)” value in assay [1] (10 μM drug) is 106.4 ± 4.0%. Moreover, the “total H2O2 content (relative to control = 100%)” value in assay [2] (10 μM drug) worked out at 130.1 ± 2.7%. Moreover, the “complex II+III activity (relative to control = 100%)” value in assay [3] came to 94.9 ± 4.3%. Further, the “MAO-A Inhibition (type)” value on MAO-A is listed as “partial”. Also, the IC50 on MAO-A (setting [4]) came to 8.2 µM. At MAO-A (4 measurements), the “MAO-A Hillslope” value is on record as 3.40 and the “MAO-A Residual Activity” value turned out to be 0.190 rel.u.
